The values that follow come from ChEMBL document CHEMBL4334531, “Kalshinoids A-F, Anti-inflammatory Sesquiterpenes from Kalimeris shimadae” (J Nat Prod, 2019).

Data set [1] relates to THP-1. The experiment in a line: Antiinflammatory activity against human THP1 cells assessed as inhibition of LPS-induced TNFalpha production at 200 uM preincubated for 4 hrs followed by LPS challenge and measured after 24 hrs incubation by ELISA. It is filed as functional, cell-based. Background: An ELISA detects its analyte on a solid surface through an enzyme-linked reagent.

For data set [2], the system named is THP-1. The experiment in a line: Antiinflammatory activity against human THP1 cells assessed as inhibition of LPS-induced TNFalpha production by measuring TFNalpha level at 5 uM preincubated for 4 hrs followed by LPS challenge and measured after 24 hrs incubation by ELISA. It is filed as functional.
In data set [3] the test system is THP-1. Kind of data set: Antiinflammatory activity against human THP1 cells assessed as inhibition of LPS-induced TNFalpha production preincubated for 4 hrs followed by LPS challenge and measured after 24 hrs incubation by ELISA. It is filed as functional, cell-based.
Data set [4] concerns THP-1. Kind of data set: Cytotoxicity against human THP1 cells assessed as reduction in cell viability after 72 hrs by SRB assay. The following applies: THP-1, 72 h. It is filed as cell-based.
Data set [5] deals with THP-1. Kind of data set: Antiinflammatory activity against human THP1 cells assessed as inhibition of LPS-induced TNFalpha production by measuring TFNalpha level at 10 uM preincubated for 4 hrs followed by LPS challenge and measured after 24 hrs incubation by ELISA. It counts as functional.
A short description of data set [6]: Cytotoxicity against human THP1 cells assessed as cell viability at 40 uM after 72 hrs by SRB assay relative to control. It counts as cell-based. Particulars: THP-1 cells, read-out: Activity. A general note: In SRB staining, fixed cells bind dye roughly in proportion to their protein.

Active and inactive are the calls of the source. No cut-off for these calls is given here. Some results are limits rather than exact numbers.

In the case of `C[C@@H]1C[C@H]2[C@@H]3CCC4=CC(=O)C=C[C@]4(C)[C@@]3(F)[C@@H](O)C[C@]2(C)[C@@]1(O)C(=O)CO`, the inhibition entry in the data set on THP-1 [1] is “Active”.
On to `C=C1CC[C@@H](O)[C@]2(C)CC[C@@](O)(C(C)(C)O)C[C@@H]12`, for which the Activity was 394.3 pg/mL with THP-1 [2] and 328.9 pg/mL with THP-1 [5]. Also, the inhibition entry with THP-1 [3] was “Dose-dependent effect”. The IC50 – broadly, the concentration that inhibits the measured activity by half – with THP-1 [4] is over 40 µM. In addition, the viability at 72 h, 40 µM in data set [6] is over 80%.
`COC(C)(C)C1=CC[C@@](C)(O)[C@H]2CC[C@](C)(O)[C@H]2C1`: the Activity in the data set on THP-1 [2] stood at 801.6 pg/mL; in the data set on THP-1 [5], 722.2 pg/mL. Moreover, the inhibition result with THP-1 [3] was “Dose-dependent effect”. The IC50 with THP-1 [4] was over 40 µM. Further, the viability at 72 h, 40 µM in data set [6] is over 80%.
As for `CC(C)(O)C1=CC[C@@](C)(O)[C@H]2CC[C@@](C)(O)[C@H]2C1`, the Activity in the data set with THP-1 [2] was found to be 699.2 pg/mL; with THP-1 [5], 241.7 pg/mL. For the same molecule, the inhibition entry with THP-1 [3] is “Dose-dependent effect”. In addition, the IC50 in the data set on THP-1 [4] was over 40 µM. Further, in data set [6], the viability at 72 h, 40 µM is over 80%.
